The source of these data is patent US20240308956A1, “LIPOPHILIC LITHIUM SALTS FOR DIRECT DISSOLUTION IN ORGANIC SCINTILLATORS” (Lawrence Livermore National Security, LLC, priority 2022, published 2024).

Where only a bound is given, the exact number is not on record here.

Series [1] can be described thus: Solubility of lipophilic salts in liquids. It is filed as physicochemical. On the procedure: (§1) Majority of tested compositions were prepared with ˜0.1 wt. % of atomic ^6Li, although a possibility of higher concentrations was also tested for some efficient formulations. For liquid preparations, solid constituents weighed in vials or glass jars at ambient condition were vacuumed and transferred into the nitrogen-filled glove box, where liquid components (EJ-309, DIPN, Tx-100, and IBA) were added for dissolution. Solutions were left to stirred overnight to reach equilibrium, then transferred into the quartz cuvettes, sealed, and removed from the glovebox. Unless indicated otherwise, measurements were made in small cylindrical cuvettes of Ø2 cm×1 cm in dimensions. For approximate evaluation of the attenuation, solutions of interest were also prepared and measured at larger scale in 2″×2″ (Ø5.1 cm×5.1 cm) quartz cuvettes.

Series [2] can be described thus: Long-term stability of loaded solutions to precipitation. Type of series: physicochemical. On the procedure: as §1
The conditions of series [3]: without surfactant; cited from earlier work.

For `CCCCC(CC)COC(=O)CC(C(=O)OCC(CC)CCCC)S(=O)(=O)[O-].[Li+]` (centres unmarked) [^6LiDOSS, lithium 1,4-bis(2-ethylhexoxy)-1,4-dioxobutane-2-sulfonate], the “solubility of the compound in DIPN” value in series [1] (DIPN, studies of long-term stability) is on record as “about 20 wt. %”. In addition, in series [1] (organic fluids, of total scintillator), the “solubility in organic fluids” value is recorded as “about 50 wt. %”. In series [1] (without any additional dyes), the “solubility of the compound” value was “up to 40 wt. %”. In addition, the “^6Li concentration at which solutions are stable to solid precipitation” value in series [2] (solution containing 0.5 wt. % of E404) was not above 0.3 wt. % ^6Li. For the same compound, the “stability to long-term precipitation” value in series [2] (solutions containing 0.2 wt. % of atomic lithium) is “stable to long-term precipitation”.

Consider `CC(C)CC(=O)[O-].[6Li+]` [^6LiIVA, reference compound], for which, in series [2] (single dye solutions in 90:10 DIPN:IBA), the stability of solutions entry is “highly stable”. For the same compound, the “precipitation or LO degradation on storage” value in series [2] (single dye solutions in 95:5 DIPN:IBA, sealed samples, ~1 year of observations) is on record as “no precipitation or LO degradation”.

For the compound `O=C([O-])c1cccc(-c2ccccc2)c1O.[6Li+]` [^6LiPSA], the solubility in aromatics result in series [3] is “slightly soluble”.
